Converted amounts (≈) assume the structure as drawn. Where two headings read alike, the source gives them in different places.
Experiments:
[1] = tested on: V. cholerae wildtype; design: species or system mice; conditions: mouse, in vivo
[2] = tested on: V. cholerae O395; test: microbe, parasite or virus in culture; assay type: cell-based; conditions: for effect on growth of V. cholerae: 50 μM, midlogarithmic phase (8 h), LB medium; for MIC50: 8 h
[3] = target: V. cholerae NQR complex (Vibrio cholerae serotype O1, UniProt Q9KPS2+Q9X4Q6); test: biochemical; conditions: read-out: inhibition of the ubiquinone reductase activity
[4] = tested on: wildtype V. cholerae membranes; assay type: biochemical; conditions: 50 μM
[5] = tested on: NDH-2; assay type: biochemical; conditions: 50 μM
[6] = tested on: cholera toxin; test: microbe, parasite or virus in culture; assay type: cell-based, Vibrio cholerae
[7] = tested on: terminal oxidases; assay type: biochemical; conditions: 50 μM inhibitor, 50 μM UQ-1
[8] = cited from earlier work
[9] = tested on: NADH dehydrogenases of V. cholerae membranes; assay type: biochemical; conditions: 50 μM, 200 μM NADH
[10] = single oral dose 25 mg/kg, M. tuberculosis infection model ref 31; cited from earlier work
[11] = tested on: V. cholerae 2010EL-1786; test: microbe, parasite or virus in culture; assay type: cell-based; conditions: Vibrio cholerae
[12] = human
[13] = tested on: V. cholerae O395; test: In vitro infection of T84 human intestinal cells, CFU of adherent and planktonic bacteria; assay type: cell-based; conditions: Vibrio cholerae
[14] = tested on: NDH-2; assay type: biochemical; conditions: 50 μM; remark: listed apart in the source
[15] = tested on: V. cholerae 2012EL-2176; test: microbe, parasite or virus in culture; assay type: cell-based; conditions: Vibrio cholerae

SMILES: CC1(C)S[C@@H]2[C@H](NC(=O)[C@H](N)c3ccccc3)C(=O)N2[C@H]1C(=O)O [ampicillin]
- survival of infected mice [1]: almost twice

SMILES: CN(C)CCCN1c2ccccc2Sc2ccc(Cl)cc21 [chlorpromazine]
- effect on growth of V. cholerae [2]: antimicrobial properties
- inhibition at 50 µM [3]: 20 to 40%

SMILES: CC(C)/N=c1\cc2n(-c3ccc(Cl)cc3)c3ccccc3nc-2cc1Nc1ccc(Cl)cc1 [clofazimine]
- sensitivity of activity of wildtype membranes [4]: sensitive
- inhibition of NDH-2 activity in membranes [5]: insensitive
- inhibition of cholera toxin production ([6]; 30 µM): 92%
- inhibition at 30 µM ([6]; Vibrio cholerae, read-out: inhibition of cholera toxin production): 95%
- respiratory activity with ubiquinol-1 [7]: not sensitive
- concentration in plasma [8]: submicromolar range
- inhibition of respiratory activity with NADH [9]: strong inhibitors
- effect on growth of V. cholerae [2]: strong inhibitory effects
- MIC ([2]; Vibrio cholerae): 5 µM (≈ 2.37 µg/mL)
- MIC50 ([2]; Vibrio cholerae): 3.4 ± 0.2 µM (≈ 1.61 µg/mL)
- peak serum concentration [10]: 0.43 µg/mL
- MIC [11]: 16 µM (≈ 7.57 µg/mL)
- estimated concentration that can reach the proximal section of the small intestine [12]: around 150 μM
- inhibition at 50 µM [3]: 95%
- survival of infected mice [1]: to the same extent as ampicillin
- inhibition at 30 µM ([13]; O395, T84, read-out: inhibition of the number of attached cells): > 75%
- inhibition at 30 µM ([13]; O395, T84, read-out: inhibition of the number of planktonic cells): > 90%
- sensitivity of NADH-dependent ubiquinol reductase activity of Δnqr membranes [14]: insensitive
- MIC [15]: 16 µM (≈ 7.57 µg/mL)

SMILES: OCCN1CCN(CCCN2c3ccccc3Sc3ccc(Cl)cc32)CC1 [perphenazine]
- inhibition at 50 µM ([3]; 50 μM): 20 to 40%

SMILES: CN1CCN(CCCN2c3ccccc3Sc3ccc(Cl)cc32)CC1 [prochlorperazine]
- effect on growth of V. cholerae [2]: strong inhibitory effects
- MIC50 ([2]; Vibrio cholerae): 24 ± 3 µM (≈ 8.97 µg/mL)

SMILES: CC(CN1c2ccccc2Sc2ccccc21)N(C)C (centres unmarked) [promethazine]
- inhibition at 50 µM ([3]; 50 μM): 20 to 40%

SMILES: CSc1ccc2c(c1)N(CCC1CCCCN1C)c1ccccc1S2 (centres unmarked) [thioridazine]
- inhibition of NDH-2 activity in membranes [5]: insensitive
- respiratory activity with ubiquinol-1 [7]: not sensitive
- inhibition of respiratory activity with NADH [9]: strong inhibitors
- effect on growth of V. cholerae [2]: strong inhibitory effects
- MIC50 ([2]; Vibrio cholerae): 27 ± 2 µM (≈ 10 µg/mL)

SMILES: CN1CCN(CCCN2c3ccccc3Sc3ccc(C(F)(F)F)cc32)CC1 [trifluoperazine]
- inhibition at 50 µM ([3]; 50 μM): 20 to 40%
